Square brackets hold non-standard residues; d marks the D form. Ends that are not written are not given here. Lys(Me3) = C[N+](C)(C)CCCC[C@H](N)C(=O)O
Legend:
[1] = tested on: KDM3C; assay: LC-MS demethylation activity assay, KDM3C; type: biochemical, human; settings: 2 μM KDM, 10 μM H1/H3 peptide, 10 μM FAS, 100 μM LAA, 20 μM 2OG, 50 mM HEPES pH 7.5, 2 h, room temperature, T (tri-) initial methylation state
Outline: (§1)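 His6-tagged recombinant catalytic domains (2.0 μM) were used: KDM4A M1–L359, KDM4D M1–L359 and KDM3C L2157–L2500 from E. coli, and KDM5D M1–D775 from Sf9. Each acted on 10 μM H1 peptide in 50 mM HEPES pH 7.5 with 10 μM Fe(II), 100 μM ascorbate and 20 μM 2OG for 2 h at room temperature. Reactions were formic acid-quenched and analysed by LC-MS.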

[2] = target: T1, KDM4D (Homo sapiens, UniProt Q6B0I6); assay: LC-MS demethylation activity assay, KDM4D; type: biochemical; settings: room temperature; for substrate conversion (demethylation) by KDM4D / di-methylated product formed by KDM4D / mono-methylated product formed by KDM4D: 2 μM KDM4D, 10 μM peptide; for substrate conversion (demethylation) by KDM4D / KDM4D demethylation activity, T: 10 μM FAS, 100 μM LAA, 20 μM 2OG; for substrate conversion (demethylation) by KDM4D: HEPES pH 7.5, 2 h; for di-methylated product formed by KDM4D / mono-methylated product formed by KDM4D: standard conditions, 2 h; for KDM4D demethylation activity, T: 2 μM KDM, 10 μM H1/H3 peptide, 50 mM HEPES pH 7.5, 2 h, T (tri-) initial methylation state
T1 construct: KDM4AM1-L359,[38]; KDM4DM1-L359,[39]; KDM4EM1-R336,[30]; His6 (N); made in house; host or cells: Escherichia coli
T1 sequence (Q6B0I6 1-359): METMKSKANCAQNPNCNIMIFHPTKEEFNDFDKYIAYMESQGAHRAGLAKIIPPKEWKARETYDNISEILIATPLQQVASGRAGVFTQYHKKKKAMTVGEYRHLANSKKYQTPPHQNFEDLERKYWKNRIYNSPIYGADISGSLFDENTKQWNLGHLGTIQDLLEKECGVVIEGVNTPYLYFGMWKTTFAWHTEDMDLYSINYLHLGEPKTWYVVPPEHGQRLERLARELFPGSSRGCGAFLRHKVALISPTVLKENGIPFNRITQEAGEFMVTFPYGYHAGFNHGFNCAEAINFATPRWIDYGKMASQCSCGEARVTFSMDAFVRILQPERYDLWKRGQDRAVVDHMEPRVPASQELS
Outline: as §1

[3] = tested on: KDM5D; assay: LC-MS demethylation activity assay, KDM5D; type: biochemical, human; settings: 2 μM KDM, 10 μM H1/H3 peptide, 10 μM FAS, 100 μM LAA, 20 μM 2OG, 50 mM HEPES pH 7.5, 2 h, room temperature, T (tri-) initial methylation state
Outline: as §1

[4] = tested on: KDM6B; assay: LC-MS demethylation activity assay, KDM6B; type: biochemical, human; settings: 2 μM KDM, 10 μM H1/H3 peptide, 10 μM FAS, 100 μM LAA, 20 μM 2OG, 50 mM HEPES pH 7.5, 2 h, room temperature, T (tri-) initial methylation state
Outline: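 H1 isoform peptides (10 μM) were incubated 2 h at room temperature with 2 μM recombinant N-terminally His6-tagged catalytic domains in 50 mM HEPES pH 7.5 containing FAS (10 μM), ascorbate (100 μM) and 2OG (20 μM). Reactions were quenched with formic acid (1% final), and demethylation was analysed by LC-MS (Q-TOF).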

| Substance | KDM3C demethylation activity, T [1] | substrate conversion (demethylation) by KDM4D [2] [%] | di-methylated product formed by KDM4D [2] [%] | mono-methylated product formed by KDM4D [2] [%] | KDM4D demethylation activity, T [2] | KDM5D demethylation activity, T [3] | KDM6B demethylation activity, T [4] |
| --- | --- | --- | --- | --- | --- | --- | --- |
| KKKAAK[Lys(Me3)]AGGTPRKA [Peptide H1.2K26me3, 15-mer linker histone H1.2 residues 20-34 peptide, tri-methylated K26] | ● [red] | ~70 | ~30 | ~40 | ● [green] (green dots indicate good demethylation (>50% conversion)) | ● [red] | ● [red] |
| KKKAA[Lys(Me3)]KAGGTPRKA [Peptide H1.2K25me3, 15-mer linker histone H1.2 residues 20-34 peptide, tri-methylated K25] | ● [red] |  |  |  | ● [red] | ● [red] | ● [red] |
| KKKAR[Lys(Me3)]SAGAAKRKA [Peptide H1.4K25me3, 15-mer linker histone H1.4 residues 20-34 peptide, tri-methylated K25] | ● [red] | ~92 | ~30 | ~62 | ● [green] (green dots indicate good demethylation (>50% conversion)) | ● [red] | ● [red] |
| KKKATK[Lys(Me3)]AAGAGAAK [Peptide H1.5K26me3, 15-mer linker histone H1.5 residues 20-34 peptide, tri-methylated K26] | ● [red] |  |  |  | ● [green] (green dots indicate good demethylation (>50% conversion)) | ● [red] | ● [red] |
| KKKA[Lys(Me3)]KAGATAGKRK [Peptide H1.3K24me3, 15-mer linker histone H1.3 residues 20-34 peptide, tri-methylated K24] | ● [red] | ~68 | ~30 | ~40 | ● [green] (green dots indicate good demethylation (>50% conversion)) | ● [red] | ● [red] |

From publication PMC12363342, “Investigating the N-terminal linker histone H1 subtypes as substrates for JmjC lysine demethylases” (RSC Chemical Biology, 2025)
